Here are results for seven compounds from paper PMC6910946, “Multiple roles of Bet v 1 ligands in allergen stabilization and modulation of endosomal protease activity” (Allergy, 2019).

Where two headings read alike, the source gives them in different places.

The target of one assay is T1, Bet v 1 / human legumain (Betula pendula, UniProt P15494).
T1 construct: made in house
T1 sequence (P15494 2-160 limits assumed): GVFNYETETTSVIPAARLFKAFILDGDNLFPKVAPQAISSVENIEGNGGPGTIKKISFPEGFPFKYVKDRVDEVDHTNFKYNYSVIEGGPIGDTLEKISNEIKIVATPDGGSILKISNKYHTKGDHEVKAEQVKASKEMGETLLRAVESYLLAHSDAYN
Kind of assay: Bet v 1 in vitro proteolytic degradation assay with legumain. It counts as biochemical. The settings on record: Bet v 1 20 µM, ligand 100 µM, legumain 2 µM, pH 5.0, 0-24 h, SDS-PAGE. As to the method:
(§1) The endolysosomal degradation assay was performed with ligand‐bound (either DOC, PPE1, or Q3OS in 10× molar excess) and Bet_v_1 without ligands (apo‐Bet_v_1) as previously described.21 Recombinant human cathepsin S and human legumain were used in proteolytic degradation assays. Experimental details are described in the Appendix [Link], [Link].
(§2) Recombinant human cathepsin S and human legumain were heterologously expressed and purified as described previously.^9,10 Bet v 1 (20 µM) was incubated with ligand (100 µM) in digestion buffer (0.1 M sodium acetate, pH 5.0, 0.1 M sodium chloride, 5 mM EDTA, and 2 mM DTT) at room temperature prior to the addition of cathepsin S (1 µM) or legumain (2 µM). […] At each time point, the reaction was halted by the addition of E64 (for cathepsin S) or YVAD-CMK (for legumain) at a final concentration of 50 µM, and analyzed by SDS-PAGE. Control reactions without the addition of protease were performed. The generated peptides were analyzed using mass spectrometry.

For assay [1], the target named is T2, Bet v 1 / human cathepsin S (Betula pendula, UniProt P15494).
T2 construct: made in house
T2 sequence (P15494 2-160 limits assumed): T1 sequence (P15494 2-160 limits assumed)
Put plainly: Bet v 1 in vitro proteolytic degradation assay with cathepsin S. The settings on record: Bet v 1 20 µM, ligand 100 µM, cathepsin S 1 µM, pH 5.0, 0-24 h, SDS-PAGE. It counts as biochemical. As to the method: as §1, §2

The target of assay [2] is T3, Bet_v_1 (Betula pendula, UniProt P15494).
T3 construct: made in house
T3 sequence (P15494 1-160): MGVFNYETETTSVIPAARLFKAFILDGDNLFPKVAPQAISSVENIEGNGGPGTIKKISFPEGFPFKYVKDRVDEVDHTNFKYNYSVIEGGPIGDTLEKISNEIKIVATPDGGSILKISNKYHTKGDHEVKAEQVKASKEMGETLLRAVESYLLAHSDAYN
Put plainly: Surface acoustic wave (SAW) interaction studies, determination of Kd. The format is binding. An excerpt:
(§3) Surface acoustic wave (SAW) technology and NMR spectroscopy were used to observe the interaction of Bet_v_1 with the selected compounds, including determination of the dissociation constant (K d). The influence of ligand binding on the secondary structure elements and the thermal stability of Bet_v_1 was monitored using circular dichroism (CD, JASCO J‐815 spectropolarimeter, Jasco) and Fourier transform infrared (FTIR) spectroscopy (Tensor II FTIR system, Bruker Optics Inc). A detailed description of these methods is available (Appendix [Link], [Link]).
To assess the interactions between Bet_v_1 and Q3OS, DOC, PPE1, LTA, or LPS, we determined the dissociation constants (K d) using SAW binding assays (Table 1, Figure S1), a more quantitative approach than previously described qualitative assays.11, 25 In addition, the LPS‐substructure Kdo2‐Lipid A (Kdo2) was used for binding studies, due to its more homogenous structure but similar immune stimulatory activity when compared to native LPS.
For the determination of the affinity constant Kd, we used surface acoustic wave (SAW) technology. The interaction of the six ligands with Bet v 1 was investigated using a sam® 5BLUE biosensor instrument (Nanotemper, Munich, Germany). Bet v 1 was immobilized in PBS on the surface of a SAW CM-Dextran 3D sensor chip. […] For calculating the affinity constant Kd, different concentrations of the ligands dissolved in a 5 mM sodium phosphate buffer, pH 7.4, were applied to the Bet v 1-coupled chip. Depending on the ligand, the concentration range of the injected ligand varied between 5 µM and 500 µM. For the removal of residual ligand between the sample injections, the chip was washed with regeneration buffer (10 mM citric acid buffer, pH 2.8). The recorded SAW phase changes were analyzed using the software TraceDrawer 1.7 (Ridgeview Instruments, Uppsala, Sweden). The affinity constant Kd was calculated by kinetic evaluation and affinity/EC50 estimation. For kinetic evaluation, an OneToOne curve fit was chosen to match the raw data. Experiments were performed with two coated chips in duplicate, and the coupling efficiency was evaluated using a mouse monoclonal anti-Bet v 1 antibody.

The target in assay [3] is T3, Bet_v_1. Put plainly: NMR spectroscopy (1H-15N HSQC) binding confirmation. The settings on record: for NMR (binding confirmation, K d): 15N-labeled Bet v 1, direct measurement of Kd prevented by intermediate exchange; for specific binding to Bet v 1 (1H-15N HSQC spectra): absence vs presence of compound.
Description: as §3
To validate the interactions determined by SAW, we used NMR spectroscopy to test the specific binding of PPE1, LTA, LPS, and Kdo2 to Bet_v_1 (Table 1, Figure S2). […] The commercially available PPA1 was used as a substitute for PPE1 to identify the phytoprostane binding site(s).
The NMR data were acquired with either a 600 or 800 MHz Agilent DD2 spectrometer with a cryogenically cooled probe using the pulse sequence gNhsqc. Bet v 1 assignments were taken from.^2 The experiments were performed under the following conditions: LTA: 45 µM Bet v 1 and 300 µM LTA in PBS, 10% ^2H2O, 60 µM DSS; PPE1: 25 µM Bet v 1 and 2 µM PPE1 in PBS, 5% ^2H-(d6) DMSO, 10% ^2H2O, 60 µM DSS; PPA1: 100 µM Bet v 1 and 302 µM PPA1 (Cayman Chemical, MI, USA) in PBS, 8.7% ^2H-(d6) DMSO, 10% ^2H2O, 60 µM DSS; LPS: 100 µM Bet v 1 and 400 µM LPS in PBS pH 7.4, 10% ^2H2O, 60 µM DSS. Kdo2: 100 µM Bet v 1 and 422 µM Kdo2 in PBS pH 7.0, 10% ^2H2O, 8.6% ^2H-(d6) DMSO, 60 µM DSS.

Assay [4] has as its target T3, Bet_v_1. Kind of assay: LPS pull-down assay. It counts as binding, Betula verrucosa. The settings on record: LPS immobilized on Strep‐Tactin Sepharose beads. As to the method: To investigate whether Bet v 1 binds LPS, a pull-down assay using biotinylated ultrapure E. coli O111:B4 LPS (InvivoGen, San Diego, CA, USA) was performed as previously described.^3 In short, biotinylated LPS was immobilized on Strep-Tactin Sepharose beads (IBA Lifesciences, Göttingen, Germany) and incubated with Bet v 1 for 20 min at room temperature. Unbound protein was washed off and beads were analyzed by SDS-PAGE. As control, the individual components (Bet v 1, biotinylated LPS and Strep-Tactin Sepharose beads), and Bet v 1+beads to exclude unspecific binding, were analyzed.

The target of the next assay is T4, cathepsin S (Homo sapiens, UniProt P25774).
T4 construct: made in house
Put plainly: Enzymatic activity assay, fluorogenic substrate Z-VVR-AMC. The format is biochemical. As to the method: To evaluate the influence of Bet_v_1 ligands on cathepsin S and legumain activities, 10 nmol/L of protease was incubated with 100 µmol/L of ligand (unless otherwise stated) and 50 µmol/L of fluorogenic substrate in digestion buffer (0.1 mol/L sodium acetate pH 5.0, 0.1 mol/L sodium chloride, 5 mmol/L EDTA, and 2 mmol/L DTT), as described in the Appendix [Link], [Link]. The effect of birch pollen extract (BPE) (20‐200 µg/mL) on the cathepsin S and legumain activities was assessed in parallel. The inhibitory effect of PPE1 was assessed by replacing DTT with 0.5 mmol/L TCEP. Activities of recombinant rat cathepsin B (provided by Dr Lukas Mach) and papain (Merck) at 10 nmol/L were assayed using Z‐FR‐AMC (Bachem) as a fluorogenic substrate.
For the detection of cathepsin or legumain activities in the microsomal fraction, 8 µg of microsomal extract was incubated with 50 µM fluorogenic substrate with or without inhibitor in assay buffer (100 mM citrate pH 4.8 and 2 mM DTT). The enzymatic reactions were carried out in a 50 µL reaction volume in a 96-half-well black flat bottom assay plate (Corning Inc., Corning, NY, USA) at 37°C. The fluorescence signal was recorded using a Tecan Infinite-200 plate reader (Tecan, Männedorf, Switzerland) at an excitation wavelength of 380 nm and emission wavelength of 460 nm for 15 min of continuous measurement with a 30-s interval reading. The fluorogenic substrates used for cathepsin S and legumain were Z-VVR-AMC and Z-AAN-AMC (Bachem, Bubendorf, Switzerland), respectively. The inhibitors used for cathepsin S and legumain were Z-FL-COCHO (Sigma-Aldrich, CA, USA) and Ac-YVAD-CMK (Bachem), respectively^11.

Assay [5] concerns the target T3, Bet_v_1. The settings on record: read-out: K d of ANS, previously published; cited from earlier work.
Where [6] appears, read: Bet v 1 immobilized on chip, ligands in 5 mM sodium phosphate buffer pH 7.4, read-out: Binding affinity K d (SAW).
Setting [7] is: Fig. S1 sensorgrams, read-out: Kd (SAW, Fig. S1).

T4 sequence (P25774 115-331): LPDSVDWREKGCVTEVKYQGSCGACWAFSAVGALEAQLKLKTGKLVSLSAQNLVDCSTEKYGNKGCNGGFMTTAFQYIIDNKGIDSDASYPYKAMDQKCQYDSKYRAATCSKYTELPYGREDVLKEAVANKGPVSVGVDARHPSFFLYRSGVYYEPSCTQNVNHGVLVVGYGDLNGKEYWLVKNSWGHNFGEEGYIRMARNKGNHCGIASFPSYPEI

As for `O=C1C[C@@H](c2ccc(O)cc2)Oc2cc(O)cc(O)c21` [Naringenin, naringenin], the “processing (degradation) of Bet v 1 by legumain” value (from here on “processing … by legumain”) on Bet v 1 / human legumain is “minor”. The “processing (degradation) of Bet v 1 by cathepsin S” value (shortened to “processing … by cathepsin S”) in assay [1] is listed as “minor”.

With lipoteichoic acid [LTA], on Bet_v_1 [2] (setting [6]), the Kd worked out at 200 µM. Also, the Kd on Bet_v_1 [2] (setting [7]) was found to be 200 µM. In addition, on Bet_v_1 [3], the “NMR (binding confirmation, K d)” value was “No significant interactions” and the “specific binding to Bet v 1 (1H-15N HSQC spectra)” value (shortened to “specific binding”) is “No significant interactions”.

For lipopolysaccharide [LPS], the Kd at Bet_v_1 [2] (setting [6]) amounted to 185 µM. In addition, the Kd on Bet_v_1 [2] (setting [7]) was found to be 185 µM. Moreover, at Bet_v_1 [4], the “binding of Bet v 1 to biotinylated LPS (pull-down)” value is recorded as “do not specifically bind”. Besides, on Bet_v_1 [3], the “NMR (binding confirmation, K d)” value was “No significant interactions” and the “specific binding” value is on record as “No significant interactions”.

With `CCC(O)/C=C/C1C(O)CC(O)C1CCCCCCCC(=O)O` (stereo not shown) [PPF1, F1‐phytoprostanes], the “cathepsin S activity with phytohormones structurally related to PPE1” value on cathepsin S (0.1 mmol/L, 15 min (Figure 4B)) is reported as “did not inhibit”. The Kd at Bet_v_1 [2] (setting [6]) was determined as 2.4 µM.

In the case of `CCCCCCCCCCCCCC(=O)O[C@H](CCCCCCCCCCC)CC(=O)O[C@@H]1[C@@H](NC(=O)C[C@@H](CCCCCCCCCCC)OC(=O)CCCCCCCCCCC)[C@H](OC[C@H]2O[C@H](OP(=O)(O)O)[C@H](NC(=O)C[C@H](O)CCCCCCCCCCC)[C@@H](OC(=O)C[C@H](O)CCCCCCCCCCC)[C@@H]2O)O[C@H](CO[C@]2(C(=O)O)C[C@@H](O[C@]3(C(=O)O)C[C@@H](O)[C@@H](O)[C@@H]([C@H](O)CO)O3)[C@@H](O)[C@@H]([C@H](O)CO)O2)[C@H]1OP(=O)(O)O` [Kdo2, Kdo2‐Lipid A], the Kd at Bet_v_1 [2] (setting [6]) came to 380 µM. Moreover, on Bet_v_1 [2] (setting [7]), the Kd came to 380 µM. Further, on Bet_v_1 [3], the “NMR (binding confirmation, K d)” value was “No significant interactions” and the “specific binding” value is “No significant interactions”.

Turning to `CCCCCCCCCCCCOS(=O)(=O)[O-].[Na+]` [SDS, sodium dodecyl sulfate], on Bet v 1 / human legumain, the “processing … by legumain” value is listed as “significantly accelerated”. Besides, the “processing … by cathepsin S” value in assay [1] was “significantly accelerated”. Also, the “cathepsin S fluorogenic activity” value at cathepsin S (10 nmol/L protease, 100 µmol/L ligand, 50 µmol/L substrate, pH 5.0, 2 mmol/L DTT (Figure 3A)) is “reduced the cleavage of fluorogenic substrates”.

With `O=S(=O)(O)c1cccc2cccc(Nc3ccccc3)c12` [ANS, 8‐anilinonaphthalene‐1‐sulfonic acid], the “processing … by legumain” value at Bet v 1 / human legumain was “no detectable”. In assay [1], the “processing … by cathepsin S” value is recorded as “no detectable”. Besides, the Kd on Bet_v_1 [5] was 18.5 µM; on Bet_v_1 [2] (Binding affinity K d (SAW), Bet v 1 immobilized on chip, ligands in 5 mM sodium phosphate buffer pH 7.4), 32.7 µM; at Bet_v_1 [2] (Kd (SAW, Fig. S1), Fig. S1 sensorgrams) it was 32.7 µM.
